We go through 35 compounds from patent publication US20100317647A1 (priority 2009, published 2010).

The structures appear in SMILES notation.

In general, IC50 refers to the midpoint of a concentration-inhibition curve. Read a high IC50 as weaker potency in that assay.

human Cat S, sequence (P25774 115-331): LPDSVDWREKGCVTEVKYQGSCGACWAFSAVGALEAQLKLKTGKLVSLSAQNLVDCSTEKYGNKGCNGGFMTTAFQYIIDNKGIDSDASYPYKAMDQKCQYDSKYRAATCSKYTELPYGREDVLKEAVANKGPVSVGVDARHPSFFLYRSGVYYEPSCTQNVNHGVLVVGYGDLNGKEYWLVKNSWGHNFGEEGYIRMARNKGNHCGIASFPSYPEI

This assay addresses human Cat S (Homo sapiens, UniProt P25774). Description: Cathepsin enzyme inhibition assay (fluorogenic peptide substrate cleavage). Type of assay: biochemical. The following applies: human Cat S 1 nM; substrate Z-Val-Val-Arg-AMC 20 μM; pH 6.5; fluorescence over 20 minutes. An outline of the steps: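 IC50 values derived from fluorescence increase (ex 360 nm, em 465 nm) monitored for 20 minutes after substrate addition. Enzyme held at 1 nM with 20 μM Z-Val-Val-Arg-AMC, in pH 6.5 potassium phosphate buffer containing DTT, EDTA and Triton X-100.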
`CO[C@H]1C[C@@H](S(=O)(=O)c2ccc(-n3cc(CCO)nn3)cc2C(F)(F)F)C[C@@H]1C(=O)NC1(C#N)CC1` (racemic) [Example 253, (1S,2S,4S) and (1R,2R,4R)-4-{4-[4-(2-Hydroxy-ethyl)-[1,2,3]triazol-1-yl]-2-trifluoromethyl-benzenesulfonyl}-2-methoxy-cyclopentanecarboxylic acid (1-cyano-cyclopropyl)-amide] displayed an IC50 of 0.675 nM.
`N#CCNC(=O)[C@@H]1C[C@@H](S(=O)(=O)c2ccccc2Cl)C[C@H]1COc1ccc(Cl)cc1` (single isomer, unassigned) [Example 68] had an IC50 of 2.2 nM.
`N#CCNC(=O)[C@@H]1C[C@H](S(=O)(=O)c2ccccc2Cl)C[C@H]1COc1ccc(Cl)cc1` (single isomer, unassigned) [Example 69] had an IC50 of 810 nM.
To `N#CC1(NC(=O)[C@@H]2C[C@@H](S(=O)(=O)c3ccccc3Cl)C[C@H]2COc2ccc(Cl)cc2)CC1` (single isomer, unassigned) [Example 70] belongs 3.4 nM; to `N#CC1(NC(=O)[C@@H]2C[C@H](S(=O)(=O)c3ccccc3Cl)C[C@H]2COc2ccc(Cl)cc2)CC1` (single isomer, unassigned) [Example 71], 3080 nM; to `N#CC1(NC(=O)[C@H]2CC[C@H](S(=O)(=O)c3ccc(OCC(F)(F)F)cc3Cl)C2)CC1` (single isomer, unassigned) [Example 98], 160 nM.
To `N#CC1(NC(=O)[C@H]2CC[C@@H](S(=O)(=O)c3ccc(OCC(F)(F)F)cc3Cl)C2)CC1` (single isomer, unassigned) [Example 99] belongs 500 nM.
To `N#CC1(NC(=O)[C@H]2CC[C@H](S(=O)(=O)c3ccc(-n4cccn4)cc3Cl)C2)CC1` (single isomer, unassigned) [Example 100] belongs 170 nM; to `N#CC1(NC(=O)[C@H]2CC[C@@H](S(=O)(=O)c3ccc(-n4cccn4)cc3Cl)C2)CC1` (single isomer, unassigned) [Example 101], 610 nM.
The compound `COC[C@@H]1C[C@H](S(=O)(=O)c2ccccc2Cl)C[C@H]1C(=O)NCC#N` (single isomer, unassigned) [Example 103] had an IC50 of 20.7 nM.
The result for `COC[C@@H]1C[C@@H](S(=O)(=O)c2ccccc2Cl)C[C@H]1C(=O)NCC#N` (single isomer, unassigned) [Example 104] reads 1200 nM; that for `COC[C@@H]1C[C@H](S(=O)(=O)c2ccccc2Cl)C[C@H]1C(=O)NC1(C#N)CC1` (single isomer, unassigned) [Example 105], 22.3 nM.
In turn, `COC[C@@H]1C[C@@H](S(=O)(=O)c2ccccc2Cl)C[C@H]1C(=O)NC1(C#N)CC1` (single isomer, unassigned) [Example 106] displayed an IC50 of 1010 nM.
The result for `CO[C@@H]1C[C@H](S(=O)(=O)c2ccc(Br)cc2C(F)(F)F)C[C@H]1C(=O)NC1(C#N)CC1` (single isomer, unassigned) [Example 137] reads 4.8 nM; that for `N#CCNC(=O)[C@@H]1C[C@@H](S(=O)(=O)c2ccc(F)cc2Cl)C[C@H]1COc1ccc(F)cc1` (single isomer, unassigned) [Example 143], 0.523 nM.
The result for `N#CCNC(=O)[C@@H]1C[C@H](S(=O)(=O)c2ccc(F)cc2Cl)C[C@H]1COc1ccc(F)cc1` (single isomer, unassigned) [Example 144] reads 145 nM; that for `N#CC1(NC(=O)[C@@H]2C[C@@H](S(=O)(=O)c3ccc(F)cc3Cl)C[C@H]2COc2ccc(F)cc2)CC1` (single isomer, unassigned) [Example 145], 1.25 nM.
The result for `N#CC1(NC(=O)[C@@H]2C[C@H](S(=O)(=O)c3ccc(F)cc3Cl)C[C@H]2COc2ccc(F)cc2)CC1` (single isomer, unassigned) [Example 146] reads 2.25 nM; that for `N#CCNC(=O)[C@@H]1C[C@@H](S(=O)(=O)c2ccccc2)C[C@H]1C(=O)N1CCOCC1` [Example 1, (1R,2R,4R)-4-Benzenesulfonyl-2-(morpholine-4-carbonyl)-cyclopentanecarboxylic acid cyanomethyl-amide], 0.6 nM; that for `N#CC1(NC(=O)[C@@H]2C[C@@H](S(=O)(=O)c3ccccc3)C[C@H]2C(=O)N2CCOCC2)CC1` [Example 2, (1R,2R,4R)-4-Benzenesulfonyl-2-(morpholine-4-carbonyl)-cyclopentanecarboxylic acid (1-cyano-cyclopropyl)-amide], 0.7 nM.
Compound `N#CCNC(=O)[C@@H]1C[C@@H](S(=O)(=O)c2ccccc2Cl)C[C@H]1C(=O)N1CCOCC1` [Example 3, (1R,2R,4R)-4-(2-Chloro-benzenesulfonyl)-2-(morpholine-4-carbonyl)-cyclopentanecarboxylic acid cyanomethyl-amide] yielded an IC50 of 0.5 nM.
The result for `Cc1ccc(S(=O)(=O)[C@@H]2C[C@@H](C(=O)NCC#N)[C@H](C(=O)N3CCOCC3)C2)cc1` [Example 4, (1R,2R,4R)-2-(Morpholine-4-carbonyl)-4-(toluene-4-sulfonyl)-cyclopentanecarboxylic acid cyanomethyl-amide] reads 0.6 nM; that for `Cc1cccc(S(=O)(=O)[C@@H]2C[C@@H](C(=O)NCC#N)[C@H](C(=O)N3CCOCC3)C2)c1` [Example 5, (1R,2R,4R)-2-(Morpholine-4-carbonyl)-4-(toluene-3-sulfonyl)-cyclopentanecarboxylic acid cyanomethyl-amide], 0.6 nM; that for `N#CCNC(=O)[C@@H]1C[C@@H](S(=O)(=O)c2ccc(F)cc2F)C[C@H]1C(=O)N1CCOCC1` [Example 6, (1R,2R,4R)-4-(2,4-Difluoro-benzenesulfonyl)-2-(morpholine-4-carbonyl)-cyclopentanecarboxylic acid cyanomethyl-amide], 0.8 nM.
The result for `N#CCNC(=O)[C@@H]1C[C@@H](S(=O)(=O)c2ccc(F)c(Cl)c2)C[C@H]1C(=O)N1CCOCC1` [Example 7, (1R,2R,4R)-4-(3-Chloro-4-fluoro-benzenesulfonyl)-2-(morpholine-4-carbonyl)-cyclopentanecarboxylic acid cyanomethyl-amide] reads 0.7 nM; that for `Cc1cc(Cl)ccc1S(=O)(=O)[C@@H]1C[C@@H](C(=O)NCC#N)[C@H](C(=O)N2CCOCC2)C1` [Example 8, (1R,2R,4R)-4-(4-Chloro-2-methyl-benzenesulfonyl)-2-(morpholine-4-carbonyl)-cyclopentanecarboxylic acid cyanomethyl-amide], 0.4 nM.
To `N#CC1(NC(=O)[C@@H]2C[C@@H](S(=O)(=O)c3ccccc3Cl)C[C@H]2C(=O)N2CCOCC2)CC1` [Example 9, (1R,2R,4R)-4-(2-Chloro-benzenesulfonyl)-2-(morpholine-4-carbonyl)-cyclopentanecarboxylic acid (1-cyano-cyclopropyl)-amide] belongs 0.9 nM.
`N#CC1(NC(=O)[C@@H]2C[C@@H](S(=O)(=O)c3ccccc3)C[C@H]2C(=O)O)CC1` [Example 10, (1R,2R,4R)-4-Benzenesulfonyl-2-(1-cyano-cyclopropylcarbamoyl)-cyclopentanecarboxylic acid]: the IC50 was 425 nM.
To `N#CC1(NC(=O)[C@@H]2C[C@@H](S(=O)(=O)c3ccccc3)C[C@H]2C(=O)N2CC3(COC3)C2)CC1` [Example 11, (1R,2R,4R)-4-Benzenesulfonyl-2-(2-oxa-6-aza-spiro[3.3]heptane-6-carbonyl)-cyclopentanecarboxylic acid (1-cyano-cyclopropyl)-amide] belongs 3 nM; to `N#CC1(NC(=O)[C@@H]2C[C@@H](S(=O)(=O)c3ccccc3)C[C@H]2C(=O)N2CCCCC2)CC1` [Example 12, (1R,2R,4R)-4-Benzenesulfonyl-2-(piperidine-1-carbonyl)-cyclopentanecarboxylic acid (1-cyano-cyclopropyl)-amide], 0.8 nM.
As to `N#CC1(NC(=O)[C@@H]2C[C@@H](S(=O)(=O)c3ccccc3)C[C@H]2C(=O)N2CCC(O)CC2)CC1` [Example 13, (1R,2R,4R)-4-Benzenesulfonyl-2-(4-hydroxy-piperidine-1-carbonyl)-cyclopentanecarboxylic acid (1-cyano-cyclopropyl)-amide], half-maximal inhibition (IC50) required 1 nM.
The compound `N#CC1(NC(=O)[C@@H]2C[C@@H](S(=O)(=O)c3ccccc3)C[C@H]2C(=O)N2CCNCC2)CC1` [Example 14, (1R,2R,4R)-4-Benzenesulfonyl-2-(piperazine-1-carbonyl)-cyclopentanecarboxylic acid (1-cyano-cyclopropyl)-amide] returned an IC50 of 10.9 nM.
To `N#CC1(NC(=O)[C@@H]2C[C@@H](S(=O)(=O)c3ccccc3)C[C@H]2C(=O)N2CC(O)C2)CC1` [Example 15, (1R,2R,4R)-4-Benzenesulfonyl-2-(3-hydroxy-azetidine-1-carbonyl)-cyclopentanecarboxylic acid (1-cyano-cyclopropyl)-amide] belongs 7.4 nM; to `C[C@@H]1CN(C(=O)[C@@H]2C[C@H](S(=O)(=O)c3ccccc3)C[C@H]2C(=O)NC2(C#N)CC2)C[C@H](C)O1` [Example 16, (1R,2R,4R)-4-Benzenesulfonyl-2-((2S,6R)-2,6-dimethyl-morpholine-4-carbonyl)-cyclopentanecarboxylic acid (1-cyano-cyclopropyl)-amide], 0.4 nM.
To `N#CC1(NC(=O)[C@@H]2C[C@@H](S(=O)(=O)c3ccccc3)C[C@H]2C(=O)N2C[C@H]3CC[C@@H](C2)O3)CC1` [Example 17, (1R,2R,4R)-4-Benzenesulfonyl-2-((1R,5S)-8-oxa-3-aza-bicyclo[3.2.1]octane-3-carbonyl)-cyclopentanecarboxylic acid (1-cyano-cyclopropyl)-amide] belongs 1.1 nM.
